# Measurements as given in patent US6046171A, “6,11-bridged erythromycin derivatives” (priority 1998, dated 2000).
# Experiments:
# Format in all cases: cell-based
# Escherichia coli DC-2 = experiment: in vitro antibacterial MIC, agar dilution; settings: organism code SS; 35-37° C., 20 to 24 hours; unit assumed
# Protocol: (§1) Representative compounds of the present invention were assayed in vitro for antibacterial activity as follows: Twelve petri dishes containing successive aqueous dilutions of the test compound mixed with 10 mL of sterilized Brain Heart Infusion (BHI) agar (Difco 0418-01-5) were prepared. Each plate was inoculated with 1:100 (or 1:10 for slow-growing strains, such as Micrococcus and Streptococcus) dilutions of up to 32 different microorganisms, using a Steers replicator block. […] In addition, a control plate, using BHI agar containing no test compound, was prepared and incubated at the beginning and end of each test.
# (§2) An additional plate containing a compound having known susceptibility patterns for the organisms being tested and belonging to the same antibiotic class as the test compound was also prepared and incubated as a further control, as well as to provide test-to-test comparability.
# (§3) After incubation, each plate was visually inspected. The minimum inhibitory concentration (MIC) was defined as the lowest concentration of drug yielding no growth, a slight haze, or sparsely isolated colonies on the inoculum spot as compared to the growth control.
# [1] = test system: Staphylococcus aureus NCTC10649M; experiment: in vitro antibacterial MIC, agar dilution; settings: organism code EE; 35-37° C., 20 to 24 hours; unit assumed
# Protocol: as §1, §2, §3
# [2] = test system: Staphylococcus aureus A-5278; experiment: in vitro antibacterial MIC, agar dilution; settings: organism code CC; 35-37° C., 20 to 24 hours; unit assumed
# Protocol: as §1, §2, §3
# [3] = test system: Micrococcus luteus ATCC 4698; experiment: in vitro antibacterial MIC, agar dilution; settings: organism code PP; 35-37° C., 20 to 24 hours; unit assumed
# Protocol: as §1, §2, §3
# Escherichia coli SS = experiment: in vitro antibacterial MIC, agar dilution; settings: organism code RR; 35-37° C., 20 to 24 hours; unit assumed
# Protocol: as §1, §2, §3
# [4] = test system: Streptococcus Pheumoniae 5649; experiment: in vitro antibacterial MIC, agar dilution; settings: organism code ZZA; 35-37° C., 20 to 24 hours; unit assumed
# Protocol: as §1, §2, §3
# [5] = test system: Streptococcus pyogenes 930; experiment: in vitro antibacterial MIC, agar dilution; settings: organism code MM; 35-37° C., 20 to 24 hours; unit assumed
# Protocol: as §1, §2, §3
# [6] = test system: Micrococcus luteus ATCC 9341; experiment: in vitro antibacterial MIC, agar dilution; settings: organism code OO; 35-37° C., 20 to 24 hours; unit assumed
# Protocol: as §1, §2, §3
# [7] = test system: Streptococcus Pheumoniae GYR 1171; experiment: in vitro antibacterial MIC, agar dilution; settings: organism code YY; 35-37° C., 20 to 24 hours; unit assumed
# Protocol: as §1, §2, §3
# [8] = test system: Staphylococcus epidermidis 3519; experiment: in vitro antibacterial MIC, agar dilution; settings: organism code HH; 35-37° C., 20 to 24 hours; unit assumed
# Protocol: as §1, §2, §3
# [9] = test system: Streptococcus pyogenes PIU 2548; experiment: in vitro antibacterial MIC, agar dilution; settings: organism code NN; 35-37° C., 20 to 24 hours; unit assumed
# Protocol: as §1, §2, §3
# [10] = test system: Enterococcus faecium ATCC 8Q43; experiment: in vitro antibacterial MIC, agar dilution; settings: organism code II; 35-37° C., 20 to 24 hours; unit assumed
# Protocol: as §1, §2, §3
# [11] = test system: Mycobacterium smegmatis ATCC 114; experiment: in vitro antibacterial MIC, agar dilution; settings: organism code UU; 35-37° C., 20 to 24 hours; unit assumed
# Protocol: as §1, §2, §3
# [12] = test system: Staphylococcus aureus CMX 553; experiment: in vitro antibacterial MIC, agar dilution; settings: organism code FF; 35-37° C., 20 to 24 hours; unit assumed
# Protocol: as §1, §2, §3
# Escherichia coli JUHL = experiment: in vitro antibacterial MIC, agar dilution; settings: organism code QQ; 35-37° C., 20 to 24 hours; unit assumed
# Protocol: as §1, §2, §3
# [13] = test system: Streptococcus agalactiae CMX 508; experiment: in vitro antibacterial MIC, agar dilution; settings: organism code KK; 35-37° C., 20 to 24 hours; unit assumed
# Protocol: as §1, §2, §3
# [14] = test system: Haemophilis Influenzae DILL AMP R; experiment: in vitro antibacterial MIC, agar dilution; settings: organism code WW; 35-37° C., 20 to 24 hours; unit assumed
# Protocol: as §1, §2, §3
# [15] = test system: Staphylococcus aureus A5177; experiment: in vitro antibacterial MIC, agar dilution; settings: organism code BB; 35-37° C., 20 to 24 hours; unit assumed
# Protocol: as §1, §2, §3
# [16] = test system: Streptococcus Pheumoniae ATCC6303; experiment: in vitro antibacterial MIC, agar dilution; settings: organism code XX; 35-37° C., 20 to 24 hours; unit assumed
# Protocol: as §1, §2, §3
# [17] = test system: Staphylococcus aureus CMX 642A; experiment: in vitro antibacterial MIC, agar dilution; settings: organism code DD; 35-37° C., 20 to 24 hours; unit assumed
# Protocol: as §1, §2, §3
# [18] = test system: Streptococcus pyogenes EES61; experiment: in vitro antibacterial MIC, agar dilution; settings: organism code LL; 35-37° C., 20 to 24 hours; unit assumed
# Protocol: as §1, §2, §3
# [19] = test system: Staphylococcus aureus 1775; experiment: in vitro antibacterial MIC, agar dilution; settings: organism code GG; 35-37° C., 20 to 24 hours; unit assumed
# Protocol: as §1, §2, §3
# [20] = test system: Streptococcus bovis A-5169; experiment: in vitro antibacterial MIC, agar dilution; settings: organism code JJ; 35-37° C., 20 to 24 hours; unit assumed
# Protocol: as §1, §2, §3
# [21] = test system: Nocardia Asteroides ATCC9970; experiment: in vitro antibacterial MIC, agar dilution; settings: organism code VV; 35-37° C., 20 to 24 hours; unit assumed
# Protocol: as §1, §2, §3
# [22] = test system: Staphylococcus aureus ATCC 6538P; experiment: in vitro antibacterial MIC, agar dilution (BHI agar, Steers replicator); settings: organism code AA; 35-37° C., 20 to 24 hours; unit assumed
# Protocol: as §1, §2, §3
# Candida albicans CCH 442 = experiment: in vitro MIC, agar dilution; settings: organism code TT; 35-37° C., 20 to 24 hours; unit assumed
# Protocol: as §1, §2, §3
# [23] = test system: Streptococcus Pheumoniae 5979; experiment: in vitro antibacterial MIC, agar dilution; settings: organism code ZZ; 35-37° C., 20 to 24 hours; unit assumed
# Protocol: as §1, §2, §3
structure (smiles),measurement,setting,value
"CC[C@H]1OC(=O)[C@H](C)[C@@H](O[C@H]2C[C@@](C)(OC)[C@@H](O)[C@H](C)O2)[C@H](C)[C@@H](O[C@@H]2O[C@H](C)C[C@H](N(C)C)[C@H]2O)[C@](C)(O)C[C@@H](C)C(=O)[C@H](C)[C@@H](O)[C@]1(C)O [Ery. A, Erythromycin A, reference compound]",MIC,Escherichia coli DC-2,> 100 µg/mL
same,MIC,[1],0.39 µg/mL
same,MIC,[2],> 100 µg/mL
same,MIC,[3],0.2 µg/mL
same,MIC,Escherichia coli SS,0.78 µg/mL
same,MIC,[4],16 µg/mL
same,MIC,[5],> 100 µg/mL
same,MIC,[6],0.05 µg/mL
same,MIC,[7],0.06 µg/mL
same,MIC,[8],0.39 µg/mL
same,MIC,[9],6.2 µg/mL
same,MIC,[10],0.05 µg/mL
same,MIC,[11],3.1 µg/mL
same,MIC,[12],0.39 µg/mL
same,MIC,Escherichia coli JUHL,> 100 µg/mL
same,MIC,[13],0.05 µg/mL
same,MIC,[14],4 µg/mL
same,MIC,[15],3.1 µg/mL
same,MIC,[16],0.06 µg/mL
same,MIC,[17],0.39 µg/mL
same,MIC,[18],0.05 µg/mL
same,MIC,[19],> 100 µg/mL
same,MIC,[20],0.02 µg/mL
same,MIC,[21],0.1 µg/mL
same,MIC,[22],0.2 µg/mL
same,MIC,Candida albicans CCH 442,> 100 µg/mL
CC[C@H]1OC(=O)[C@H](C)[C@@H](O[C@H]2C[C@@](C)(OC)[C@@H](O)[C@H](C)O2)[C@H](C)[C@@H](O[C@@H]2O[C@H](C)C[C@H](N(C)C)[C@H]2O)[C@@]2(C)C[C@@H](C)C(=O)[C@H](C)[C@H]3N(CC=CCO2)C(=O)O[C@]13C [Example 14],MIC,Escherichia coli DC-2,> 100 µg/mL
same,MIC,[1],0.39 µg/mL
same,MIC,[2],> 100 µg/mL
same,MIC,[3],0.39 µg/mL
same,MIC,Escherichia coli SS,0.78 µg/mL
same,MIC,[23],> 128 µg/mL
same,MIC,[4],16 µg/mL
same,MIC,[5],> 100 µg/mL
same,MIC,[6],0.05 µg/mL
same,MIC,[7],0.03 µg/mL
same,MIC,[8],0.2 µg/mL
same,MIC,[9],6.2 µg/mL
same,MIC,[10],0.1 µg/mL
same,MIC,[11],0.78 µg/mL
same,MIC,[12],0.2 µg/mL
same,MIC,Escherichia coli JUHL,50 µg/mL
same,MIC,[13],0.05 µg/mL
same,MIC,[14],8 µg/mL
same,MIC,[15],3.1 µg/mL
same,MIC,[16],0.03 µg/mL
same,MIC,[17],0.2 µg/mL
same,MIC,[18],0.05 µg/mL
same,MIC,[19],> 100 µg/mL
same,MIC,[20],0.05 µg/mL
same,MIC,[21],0.05 µg/mL
same,MIC,[22],0.2 µg/mL
same,MIC,Candida albicans CCH 442,> 100 µg/mL
CC[C@H]1OC(=O)[C@H](C)[C@@H](O[C@H]2C[C@@](C)(OC)[C@@H](O)[C@H](C)O2)[C@H](C)[C@@H](O[C@@H]2O[C@H](C)C[C@H](N(C)C)[C@H]2O)[C@@]2(C)C[C@@H](C)C(=O)[C@H](C)[C@H]3N(CC(=O)CC=CCO2)C(=O)O[C@]13C [Example 20],MIC,Escherichia coli DC-2,> 100 µg/mL
same,MIC,[1],3.1 µg/mL
same,MIC,[2],> 100 µg/mL
same,MIC,[3],0.78 µg/mL
same,MIC,Escherichia coli SS,3.1 µg/mL
same,MIC,[23],128 µg/mL
same,MIC,[4],1 µg/mL
same,MIC,[5],100 µg/mL
same,MIC,[6],0.2 µg/mL
same,MIC,[7],0.25 µg/mL
same,MIC,[8],3.1 µg/mL
same,MIC,[9],25 µg/mL
same,MIC,[10],0.2 µg/mL
same,MIC,[11],0.39 µg/mL
same,MIC,[12],3.1 µg/mL
same,MIC,Escherichia coli JUHL,> 100 µg/mL
same,MIC,[13],0.39 µg/mL
same,MIC,[14],8 µg/mL
same,MIC,[15],12.5 µg/mL
same,MIC,[16],0.25 µg/mL
same,MIC,[17],3.1 µg/mL
same,MIC,[18],0.2 µg/mL
same,MIC,[19],> 100 µg/mL
same,MIC,[20],0.2 µg/mL
same,MIC,[21],0.2 µg/mL
same,MIC,[22],3.1 µg/mL
same,MIC,Candida albicans CCH 442,> 100 µg/mL
